One block for each compound: values may come before it.
How the values were obtained:
[1] = target: EZH1 pentameric complex (EZH1:EED:SUZ12:RBBP4:AEBP2) (Homo sapiens, UniProt Q92800); assay: Methyltransferase activity assay; assay type: biochemical
[2] = target: EZH2 trimeric complex (EZH2:EED:SUZ12) (Homo sapiens, UniProt Q15910); assay: Methyltransferase activity assay; assay type: biochemical; details: for fold loss of potency for EZH2: relative to the parent compound of the sentence (5, 24 or 53)
Sequence of EZH2 trimeric complex (EZH2:EED:SUZ12) (Q15910 whole entry): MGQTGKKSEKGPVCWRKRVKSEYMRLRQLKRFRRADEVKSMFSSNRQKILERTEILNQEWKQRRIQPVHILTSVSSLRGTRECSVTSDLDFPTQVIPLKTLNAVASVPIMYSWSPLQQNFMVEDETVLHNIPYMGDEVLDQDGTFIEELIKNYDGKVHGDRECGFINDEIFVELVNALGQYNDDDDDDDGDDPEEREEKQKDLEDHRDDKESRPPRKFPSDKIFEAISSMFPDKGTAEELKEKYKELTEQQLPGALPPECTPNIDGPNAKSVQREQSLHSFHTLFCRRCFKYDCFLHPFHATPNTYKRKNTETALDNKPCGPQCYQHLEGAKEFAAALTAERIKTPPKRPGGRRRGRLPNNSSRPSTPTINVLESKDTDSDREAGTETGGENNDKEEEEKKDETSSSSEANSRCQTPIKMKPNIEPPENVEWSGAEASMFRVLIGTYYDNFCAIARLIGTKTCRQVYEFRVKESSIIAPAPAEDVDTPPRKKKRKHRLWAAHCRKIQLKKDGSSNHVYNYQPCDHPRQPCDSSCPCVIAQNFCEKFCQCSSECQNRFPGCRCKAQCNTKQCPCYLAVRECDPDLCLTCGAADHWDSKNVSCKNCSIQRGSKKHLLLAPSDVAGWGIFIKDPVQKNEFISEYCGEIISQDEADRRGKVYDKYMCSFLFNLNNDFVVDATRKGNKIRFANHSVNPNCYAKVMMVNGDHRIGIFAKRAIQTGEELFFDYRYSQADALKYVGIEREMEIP
Sequence of EZH2 trimeric complex (EZH2:EED:SUZ12) (O75530 whole entry partner): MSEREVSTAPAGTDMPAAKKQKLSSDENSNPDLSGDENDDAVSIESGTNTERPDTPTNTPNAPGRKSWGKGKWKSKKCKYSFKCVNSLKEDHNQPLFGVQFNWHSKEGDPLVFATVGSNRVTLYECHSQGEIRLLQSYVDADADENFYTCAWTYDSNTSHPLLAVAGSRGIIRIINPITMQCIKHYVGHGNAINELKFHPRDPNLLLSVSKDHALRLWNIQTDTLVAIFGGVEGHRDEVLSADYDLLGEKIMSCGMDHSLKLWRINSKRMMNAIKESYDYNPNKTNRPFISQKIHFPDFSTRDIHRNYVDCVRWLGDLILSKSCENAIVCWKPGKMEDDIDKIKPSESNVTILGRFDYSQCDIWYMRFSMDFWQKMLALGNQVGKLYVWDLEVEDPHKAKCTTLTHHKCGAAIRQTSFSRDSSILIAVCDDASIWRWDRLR
Sequence of EZH2 trimeric complex (EZH2:EED:SUZ12) (Q15022 whole entry partner): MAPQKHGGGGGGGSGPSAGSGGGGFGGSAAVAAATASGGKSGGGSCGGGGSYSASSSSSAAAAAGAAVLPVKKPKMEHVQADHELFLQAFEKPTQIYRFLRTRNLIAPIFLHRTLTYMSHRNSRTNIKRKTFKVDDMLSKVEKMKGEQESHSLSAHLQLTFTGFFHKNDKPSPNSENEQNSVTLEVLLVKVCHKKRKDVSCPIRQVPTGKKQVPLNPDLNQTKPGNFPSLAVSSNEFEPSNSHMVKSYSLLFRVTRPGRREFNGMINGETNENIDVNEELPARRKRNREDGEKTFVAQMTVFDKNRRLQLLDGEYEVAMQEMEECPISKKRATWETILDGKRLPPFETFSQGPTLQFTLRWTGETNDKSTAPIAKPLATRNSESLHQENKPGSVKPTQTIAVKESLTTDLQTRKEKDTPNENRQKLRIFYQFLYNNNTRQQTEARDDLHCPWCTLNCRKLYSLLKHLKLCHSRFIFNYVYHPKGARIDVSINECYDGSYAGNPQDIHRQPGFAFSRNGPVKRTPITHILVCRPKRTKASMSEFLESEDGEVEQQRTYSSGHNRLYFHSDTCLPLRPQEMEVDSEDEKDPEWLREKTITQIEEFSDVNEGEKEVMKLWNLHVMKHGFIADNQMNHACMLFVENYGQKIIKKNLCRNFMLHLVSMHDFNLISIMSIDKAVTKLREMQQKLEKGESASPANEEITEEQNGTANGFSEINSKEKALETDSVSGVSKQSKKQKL

Sequence of EZH1 pentameric complex (EZH1:EED:SUZ12:RBBP4:AEBP2) (Q92800 whole entry): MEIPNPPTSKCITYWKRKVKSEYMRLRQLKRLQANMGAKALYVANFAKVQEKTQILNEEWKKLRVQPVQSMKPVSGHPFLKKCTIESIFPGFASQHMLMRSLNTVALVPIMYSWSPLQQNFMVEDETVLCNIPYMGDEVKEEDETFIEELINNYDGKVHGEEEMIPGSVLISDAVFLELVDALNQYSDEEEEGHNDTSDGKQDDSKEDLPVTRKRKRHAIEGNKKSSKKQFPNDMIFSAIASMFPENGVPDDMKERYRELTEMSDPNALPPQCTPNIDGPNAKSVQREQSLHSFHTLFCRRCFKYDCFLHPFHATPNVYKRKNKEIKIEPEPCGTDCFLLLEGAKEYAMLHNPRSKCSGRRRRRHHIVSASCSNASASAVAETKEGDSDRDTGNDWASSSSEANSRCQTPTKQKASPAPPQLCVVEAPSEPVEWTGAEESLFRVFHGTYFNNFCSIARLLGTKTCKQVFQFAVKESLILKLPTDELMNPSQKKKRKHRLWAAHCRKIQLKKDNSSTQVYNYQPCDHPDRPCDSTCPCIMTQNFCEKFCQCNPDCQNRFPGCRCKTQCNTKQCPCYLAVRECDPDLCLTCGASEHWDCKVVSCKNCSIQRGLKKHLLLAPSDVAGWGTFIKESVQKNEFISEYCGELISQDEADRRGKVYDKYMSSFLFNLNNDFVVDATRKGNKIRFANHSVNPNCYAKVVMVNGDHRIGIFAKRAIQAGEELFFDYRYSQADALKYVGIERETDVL
Sequence of EZH1 pentameric complex (EZH1:EED:SUZ12:RBBP4:AEBP2) (O75530 whole entry partner): as the sequence (O75530 whole entry partner) above
Sequence of EZH1 pentameric complex (EZH1:EED:SUZ12:RBBP4:AEBP2) (Q15022 whole entry partner): as the sequence (Q15022 whole entry partner) above
Sequence of EZH1 pentameric complex (EZH1:EED:SUZ12:RBBP4:AEBP2) (Q09028 whole entry partner): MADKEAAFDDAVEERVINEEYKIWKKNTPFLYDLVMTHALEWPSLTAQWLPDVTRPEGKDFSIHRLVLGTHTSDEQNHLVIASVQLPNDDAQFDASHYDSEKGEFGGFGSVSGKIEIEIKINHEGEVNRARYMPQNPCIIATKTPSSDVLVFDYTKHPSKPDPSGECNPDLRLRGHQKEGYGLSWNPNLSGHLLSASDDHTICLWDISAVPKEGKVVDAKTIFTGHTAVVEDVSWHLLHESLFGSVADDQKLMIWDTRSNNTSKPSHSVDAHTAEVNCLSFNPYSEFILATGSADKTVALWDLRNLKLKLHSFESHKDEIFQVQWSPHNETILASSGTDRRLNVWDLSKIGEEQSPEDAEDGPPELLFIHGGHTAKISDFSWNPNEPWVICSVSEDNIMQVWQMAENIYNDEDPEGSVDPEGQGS
Sequence of EZH1 pentameric complex (EZH1:EED:SUZ12:RBBP4:AEBP2) (Q6ZN18 whole entry partner): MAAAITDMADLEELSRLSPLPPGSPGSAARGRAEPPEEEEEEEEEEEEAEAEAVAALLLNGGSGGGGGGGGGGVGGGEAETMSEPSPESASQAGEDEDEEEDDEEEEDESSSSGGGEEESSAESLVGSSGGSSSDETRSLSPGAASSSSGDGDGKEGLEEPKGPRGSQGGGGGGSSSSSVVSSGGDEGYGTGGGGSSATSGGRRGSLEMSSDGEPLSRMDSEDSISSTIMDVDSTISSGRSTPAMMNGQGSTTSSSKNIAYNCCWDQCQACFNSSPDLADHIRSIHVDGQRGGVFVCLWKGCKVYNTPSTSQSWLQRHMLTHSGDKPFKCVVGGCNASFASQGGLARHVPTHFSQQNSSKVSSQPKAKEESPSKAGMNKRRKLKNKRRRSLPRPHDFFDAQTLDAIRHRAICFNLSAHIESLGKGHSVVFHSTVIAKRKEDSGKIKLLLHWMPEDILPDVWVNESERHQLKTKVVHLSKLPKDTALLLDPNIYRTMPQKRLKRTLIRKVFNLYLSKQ

Compound: CCc1cc(C)[nH]c(=O)c1CNC(=O)c1cc(-c2ccc(N3CCN(C(C)C)CC3)nc2)cc2c1cnn2C(C)C [Compound 25, N-((4-Ethyl-6-methyl-2-oxo-1,2-dihydropyridin-3-yl)methyl)-1-isopropyl-6-(6-(4-isopropylpiperazin-1-yl)pyridin-3-yl)-1H-indazole-4-carboxamide]
fold increase in EZH1 potency ([1]; relative to compound 24): more than 3 fold

Compound: CCc1cc(C)c(CNC(=O)c2cc(-c3ccc(N4CCN(C(C)C)CC4)nc3)cc3c2cnn3C(C)C)c(=O)[nH]1 [Compound 30, N-((6-Ethyl-4-methyl-2-oxo-1,2-dihydropyridin-3-yl)methyl)-1-isopropyl-6-(6-(4-isopropylpiperazin-1-yl)pyridin-3-yl)-1H-indazole-4-carboxamide]
inhibitory activity against EZH1, in words [1]: did not exhibit appreciable inhibitory activity

Compound: CCC(C)c1cc(C)c(CNC(=O)c2cc(-c3ccc(N4CCN(C(C)C)CC4)nc3)cc3c2cnn3C(C)C)c(=O)[nH]1 (centres unmarked) [Compound 31, N-((6-(sec-Butyl)-4-methyl-2-oxo-1,2-dihydropyridin-3-yl)-methyl)-1-isopropyl-6-(6-(4-isopropylpiperazin-1-yl)pyridin-3-yl)-1H-indazole-4-carboxamide]
inhibitory activity against EZH1, in words [1]: did not exhibit appreciable inhibitory activity

Compound: CC(C)N1CCN(c2ccc(-c3cc(C(=O)NCc4ccc[nH]c4=O)c4cnn(C(C)C)c4c3)cn2)CC1 [Compound 34, 1-Isopropyl-6-(6-(4-isopropylpiperazin-1-yl)pyridin-3-yl)-N-((2-oxo-1,2-dihydropyridin-3-yl)methyl)-1H-indazole-4-carboxamide]
fold loss of potency for EZH2 [2]: > 500 fold

Compound: CCCc1cc(C)[nH]c(=O)c1CNC(=O)c1cc(-c2ccc(N3CCN(C(C)C)CC3)nc2)cc2c1cnn2CC1CCCC1 [Compound 58, 1-(Cyclopentylmethyl)-6-(6-(4-isopropylpiperazin-1-yl)pyridin-3-yl)-N-((6-methyl-2-oxo-4-propyl-1,2-dihydropyridin-3-yl)methyl)-1H-indazole-4-carboxamide]
fold loss of potency for EZH2 [2]: > 15 fold

Compound: CCCc1cc(C)[nH]c(=O)c1CNC(=O)c1cc(-c2ccc(N3CCN(C(C)C)CC3)nc2)cc2c1cnn2CC1CCCCC1 [Compound 59, 1-(Cyclohexylmethyl)-6-(6-(4-isopropylpiperazin-1-yl)pyridin-3-yl)-N-((6-methyl-2-oxo-4-propyl-1,2-dihydropyridin-3-yl)methyl)-1H-indazole-4-carboxamide]
inhibitory activity against EZH2, in words [2]: significant drop in potency

Compound: CCCc1cc(C)[nH]c(=O)c1CNC(=O)c1cc(-c2ccc(N3CCN(C(C)C)CC3)nc2)cc2c1cnn2CCC1CCCCC1 [Compound 62, 1-(2-Cyclohexylethyl)-6-(6-(4-isopropylpiperazin-1-yl)pyridin-3-yl)-N-((6-methyl-2-oxo-4-propyl-1,2-dihydropyridin-3-yl)methyl)-1H-indazole-4-carboxamide]
inhibitory activity against EZH2, in words [2]: significant drop in potency

Compound: CCCc1cc(C)[nH]c(=O)c1CNC(=O)c1cc(-c2ccccc2)cc2c1cnn2C(C)C [Compound 66, 1-Isopropyl-N-((6-methyl-2-oxo-4-propyl-1,2-dihydropyridin-3-yl)methyl)-6-phenyl-1H-indazole-4-carboxamide]
inhibitory activity against EZH2, in words [2]: relatively good potency

Results, then the compound that gave them:

inhibitory activity against EZH2, in words [2]: relatively good potency
Compound: CCCc1cc(C)[nH]c(=O)c1CNC(=O)c1cc(-c2ccc(F)cc2)cc2c1cnn2C(C)C [Compound 67]

inhibitory activity against EZH2, in words [2]: relatively good potency
Compound: CCCc1cc(C)[nH]c(=O)c1CNC(=O)c1cc(-c2ccc(C(F)(F)F)cc2)cc2c1cnn2C(C)C [Compound 68, 1-Isopropyl-N-((6-methyl-2-oxo-4-propyl-1,2-dihydropyridin-3-yl)methyl)-6-(4-(trifluoromethyl)phenyl)-1H-indazole-4-carboxa-mide]

fold loss of potency for EZH2 [2]: 3–4 fold
Compound: CCCc1cc(C)[nH]c(=O)c1CNC(=O)c1cc(Br)cc2c1cnn2C(C)C [Compound 76, 6-Bromo-1-isopropyl-N-((6-methyl-2-oxo-4-propyl-1,2-dihydro-pyridin-3-yl)methyl)-1H-indazole-4-carboxamide]
